Data taken from the supplement of paper PMC4862054.

Key:
Conditions in all cases: incubation time: 72 h
MDA-MB-436 = experiment: normalised viability (% of control), CellTiter-Blue; higher = more viable cells (about 100 = DMSO control)
Method: (§1)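 DSRT, CellTiter-Blue viability, 72 h incubation. Signal is normalised to DMSO and benzethonium chloride controls. Value is the normalised response at dose 3.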

CAL-120 [1] = experiment: as above
Method: as §1

HCC1599 = experiment: as above
Method: as §1

SK-BR-3 = experiment: as above
Method: as §1

BT-474 = experiment: as above
Method: as §1

HCC1143 = experiment: as above
Method: as §1

MFM-223 = experiment: as above
Method: as §1

CAL-85-1 = experiment: as above
Method: as §1

HCC1937 [2] = experiment: as above
Method: as §1

MDA-MB-468 [3] = experiment: as above
Method: as §1

CAL-148 = experiment: as above
Method: as §1

CAL-51 [4] = experiment: as above
Method: as §1

HDQ-P1 = experiment: as above
Method: as §1

MDA-MB-453 = experiment: as above
Method: as §1

BT-549 [5] = experiment: as above
Method: as §1

MDA-MB-231 = experiment: as above
Method: as §1

DU-4475 [6] = experiment: as above
Method: as §1

Hs578T = experiment: as above
Method: as §1

CAL-120 [7] = experiment: drug sensitivity score (DSS), CellTox Green (DSS (AUC-based score)); higher = stronger drug effect (viability inhibition or cytotoxicity); extreme values may be limits of the assay
Method in brief: (§2)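 The drug sensitivity score was computed from the area under the fitted dose-response curve. Breast cancer cell lines in 20 µl suspension went into 384-well plates holding compound at 5 concentrations (10-fold steps over a 10,000-fold, compound-specific range) for 72 h of incubation. CellTox Green fluorescence (485/520 nm) was read before CellTiter-Glo luminescence, the latter after 10 min at room temperature, and each plate was normalised to 0.1 % DMSO and a positive kill control.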

HCC1937 [8] = experiment: as above
Method in brief: as §2

MDA-MB-468 [9] = experiment: as above
Method in brief: as §2

CAL-51 [10] = experiment: as above
Method in brief: as §2

BT-549 [11] = experiment: as above
Method in brief: as §2

DU-4475 [12] = experiment: as above
Method in brief: as §2

Row | Compound | normalised viability (MDA-MB-436; 100 nM) | normalised viability (CAL-120 [1]; 100 nM) | normalised viability (HCC1599; 100 nM) | normalised viability (SK-BR-3; 100 nM) | normalised viability (BT-474; 100 nM) | normalised viability (HCC1143; 100 nM) | normalised viability (MFM-223; 100 nM) | normalised viability (CAL-85-1; 10 nM) | normalised viability (HCC1937 [2]; 100 nM) | normalised viability (MDA-MB-468 [3]; 100 nM) | normalised viability (CAL-148; 10 nM) | normalised viability (CAL-51 [4]; 10 nM) | normalised viability (HDQ-P1; 10 nM) | normalised viability (MDA-MB-453; 10 nM) | drug sensitivity score (CAL-120 [7]) | drug sensitivity score (HCC1937 [8]) | drug sensitivity score (MDA-MB-468 [9]) | drug sensitivity score (CAL-51 [10]) | drug sensitivity score (BT-549 [11]) | drug sensitivity score (DU-4475 [12]) | further results
1 | CN[C@@H]1C[C@H]2O[C@@](C)([C@@H]1OC)n1c3ccccc3c3c4c(c5c6ccccc6n2c5c31)C(=O)N[C@H]4O [UCN-01] | 75.1% | 30.4% | 56.3% | 44.2% | 94.6% | 50.2% | 66.9% | 86.9% | 42% | 56.2% | 98.5% | 97.5% | 72.9% | 106% | 9.11 | 0 | 0 | 17 | 9.46 | 4.48 | normalised viability (BT-549 [5]; 100 nM): 52.3%; normalised viability (MDA-MB-231; 100 nM): 37%; normalised viability (DU-4475 [6]; 10 nM): 101%; normalised viability (Hs578T; 100 nM): 14.4%
2 | C#Cc1cccc(Nc2ncnc3cc(OCCOC)c(OCCOC)cc23)c1 [Erlotinib] | 109% | 102% | 78% | 88.7% | 103% | 92.9% | 88.5% | 95.4% | 106% | 95% | 98.8% | 102% | 109% | 114% | 0 | 0 | 0 | 2.1 | 0 | 0 | normalised viability (BT-549 [5]; 100 nM): 110%; normalised viability (MDA-MB-231; 100 nM): 96.6%; normalised viability (DU-4475 [6]; 10 nM): 94.9%; normalised viability (Hs578T; 100 nM): 85.4%
3 | CCC1=C[C@@H]2CN(C1)Cc1c([nH]c3ccccc13)[C@@](C(=O)OC)(c1cc3c(cc1OC)N(C)[C@H]1[C@@](O)(C(=O)OC)[C@H](OC(C)=O)[C@]4(CC)C=CCN5CC[C@]31[C@@H]54)C2 [Vinorelbine] | 56.8% | 30.6% | 90.4% | 15.7% | 43.6% | 54.4% | 49.1% | 91.3% | 28% | 39.9% | 105% | 99.9% | 99.6% | 61.1% | 1.84 | 0 | 5.08 | 24.9 | 4.21 | 0 | normalised viability (BT-549 [5]; 100 nM): 23.4%; normalised viability (MDA-MB-231; 100 nM): 37.2%; normalised viability (DU-4475 [6]; 10 nM): 107%; normalised viability (Hs578T; 100 nM): 28.7%
4 | Cn1c(Nc2ccc(C(F)(F)F)cc2)nc2cc(Oc3ccnc(-c4ncc(C(F)(F)F)[nH]4)c3)ccc21 [RAF265] |  |  |  |  |  |  |  |  |  |  |  |  |  |  | 0 | 0 | 0 | 0 | 9.17 | 0 | normalised viability (MDA-MB-436; 10 nM): 98.9%; normalised viability (CAL-120 [1]; 10 nM): 82.2%; normalised viability (HCC1599; 10 nM): 97.2%; normalised viability (SK-BR-3; 10 nM): 102%; normalised viability (BT-474; 10 nM): 103%; normalised viability (HCC1143; 10 nM): 77.8%; normalised viability (MFM-223; 10 nM): 88%; normalised viability (CAL-85-1; 1 nM): 92%; normalised viability (HCC1937 [2]; 10 nM): 93.2%; normalised viability (MDA-MB-468 [3]; 10 nM): 104%; normalised viability (CAL-148; 1 nM): 94%; normalised viability (CAL-51 [4]; 1 nM): 92.9%; normalised viability (HDQ-P1; 1 nM): 109%; normalised viability (MDA-MB-453; 1 nM): 100%; normalised viability (BT-549 [5]; 10 nM): 84.1%; normalised viability (MDA-MB-231; 10 nM): 100%; normalised viability (DU-4475 [6]; 1 nM): 92.1%; normalised viability (Hs578T; 10 nM): 89.7%
5 | CC(C)Cn1cnc2c(N)nc3ccccc3c21 [Imiquimod] | 85.6% | 98.5% | 103% | 112% | 101% | 120% | 91.2% | 95.2% | 87.1% | 106% | 105% | 102% | 99.5% | 112% | 0 | 0 | 3.54 | 0 | 0.506 | 0 | normalised viability (BT-549 [5]; 100 nM): 96.1%; normalised viability (MDA-MB-231; 100 nM): 87.4%; normalised viability (DU-4475 [6]; 10 nM): 93.5%; normalised viability (Hs578T; 100 nM): 98.1%
6 | N[C@@H](CSC(c1ccccc1)(c1ccccc1)c1ccccc1)C(=O)O [S-trityl-L-cysteine] |  |  |  |  |  |  |  |  |  |  |  |  |  |  | 0 | 3.46 | 0 | 0 | 0 | 0 | normalised viability (MDA-MB-436; 400 nM): 98.6%; normalised viability (CAL-120 [1]; 400 nM): 110%; normalised viability (HCC1599; 400 nM): 89.6%; normalised viability (SK-BR-3; 400 nM): 95.8%; normalised viability (BT-474; 400 nM): 109%; normalised viability (HCC1143; 400 nM): 122%; normalised viability (MFM-223; 400 nM): 99.8%; normalised viability (CAL-85-1; 40 nM): 101%; normalised viability (HCC1937 [2]; 400 nM): 81.5%; normalised viability (MDA-MB-468 [3]; 400 nM): 101%; normalised viability (CAL-148; 40 nM): 106%; normalised viability (CAL-51 [4]; 40 nM): 87.4%; normalised viability (HDQ-P1; 40 nM): 94.1%; normalised viability (MDA-MB-453; 40 nM): 88.8%; normalised viability (BT-549 [5]; 400 nM): 75.4%; normalised viability (MDA-MB-231; 400 nM): 91.7%; normalised viability (DU-4475 [6]; 40 nM): 99.9%; normalised viability (Hs578T; 400 nM): 92.2%
7 | Cc1ccc(C(=O)N(CCCN)[C@@H](c2oc3cc(Cl)ccc3c(=O)c2Cc2ccccc2)C(C)C)cc1 |  |  |  |  |  |  |  |  |  |  |  |  |  |  | 0 | 0 | 0 | 0 | 0 | 0 | normalised viability (MDA-MB-436; 10 nM): 55.9%; normalised viability (CAL-120 [1]; 10 nM): 31.1%; normalised viability (HCC1599; 10 nM): 80.5%; normalised viability (SK-BR-3; 10 nM): 18%; normalised viability (BT-474; 10 nM): 30.3%; normalised viability (HCC1143; 10 nM): 46.6%; normalised viability (MFM-223; 10 nM): 41.6%; normalised viability (CAL-85-1; 1 nM): 98.7%; normalised viability (HCC1937 [2]; 10 nM): 25.2%; normalised viability (MDA-MB-468 [3]; 10 nM): 29.1%; normalised viability (CAL-148; 1 nM): 92.5%; normalised viability (CAL-51 [4]; 1 nM): 103%; normalised viability (HDQ-P1; 1 nM): 105%; normalised viability (MDA-MB-453; 1 nM): 112%; normalised viability (BT-549 [5]; 10 nM): 27.4%; normalised viability (MDA-MB-231; 10 nM): 27.6%; normalised viability (DU-4475 [6]; 1 nM): 105%; normalised viability (Hs578T; 10 nM): 19.5%
8 | C=C(c1ccc(C(=O)O)cc1)c1cc2c(cc1C)C(C)(C)CCC2(C)C [Bexarotene] | 77.2% | 104% | 88% | 82.6% | 102% | 115% | 87.4% | 97% | 93.5% | 108% | 101% | 84.7% | 86.4% | 92% | 0 | 0 | 0 | 0 | 0 | 0 | normalised viability (BT-549 [5]; 100 nM): 73.2%; normalised viability (MDA-MB-231; 100 nM): 80.5%; normalised viability (DU-4475 [6]; 10 nM): 110%; normalised viability (Hs578T; 100 nM): 70.7%
